Measurements published in patent publication US20090246134A1, “COMPOSITIONS AND METHODS FOR MODULATING GATED ION CHANNELS” (PainCeptor Pharma Corporation, priority 2007, published 2009).
“And” between values parts separate entries of the source, which are not always exact repeats. Identical values can stand only once.

Legend:
[1] = Liver microsomes stability and metabolite identification (LC-MS), human; assay type: in vitro ADME
Excerpt: The objective of this study is to analyze in vitro samples of Compound A and Compound B from rat and human microsomes using liquid chromatography quadrupole ion trap mass spectrometry and identify the nature of the metabolite(s) for each species.
The HPLC system consisted of a Thermo Surveror autosampler and a Thermo Surveyor MS pump (San Jose, Calif., USA). The LC-MS/MS system used was a Thermo LCQ Advantage (San Jose, Calif., USA). Data was acquired on a Dell Optiplex desktop computer (Round Rock, Tex., USA) equipped with operation system Windows XP professional. Data acquisition and analysis were performed using XCalibur 1.4 (San Jose, Calif., USA).
After the incubation period of the liver microsomes, the reaction was stopped with the addition of acetonitrile and frozen for transport. Before analysis, the samples were thawed at room temperature. They were vortexed vigorously and centrifuged at approximately 12000 g for 10 minutes. The supernatant was transferred into an injection vial for analysis.
A gradient mobile phase was used with a Thermo Phenyl 100×2 mm column with particle size of 5 μm. The initial mobile phase condition consisted of methanol and 0.1% formic acid solution at a ratio of 20:80, respectively. From 0 to 2 minutes, the ratio was maintained at 20:80. From 2 to 10 minutes, a linear gradient was applied and a ratio of 90:10 was maintained from 10 to 12 minutes. […] The flow rate was fixed at 0.25 mL/min.
The mass spectrometer was interfaced with the HPLC system using a pneumatic assisted electrospray ion source. The sheath gas was set to 15 units and the ESI electrode was set to 4000 V (positive mode). The capillary temperature was set at 300° C., and the capillary voltage was set to 13 V. The mass spectrometer was operating in full scan MS mode using one segment analysis (200-800).

[2] = target: T1, ASIC1a (Homo sapiens, UniProt P78348); test: Whole cell patch clamp in heterologous expression system (CHO cells); assay type: cell-based; parameters: expressed in transfected cells; host or cells: CHO cells
T1 sequence (P78348 1-528): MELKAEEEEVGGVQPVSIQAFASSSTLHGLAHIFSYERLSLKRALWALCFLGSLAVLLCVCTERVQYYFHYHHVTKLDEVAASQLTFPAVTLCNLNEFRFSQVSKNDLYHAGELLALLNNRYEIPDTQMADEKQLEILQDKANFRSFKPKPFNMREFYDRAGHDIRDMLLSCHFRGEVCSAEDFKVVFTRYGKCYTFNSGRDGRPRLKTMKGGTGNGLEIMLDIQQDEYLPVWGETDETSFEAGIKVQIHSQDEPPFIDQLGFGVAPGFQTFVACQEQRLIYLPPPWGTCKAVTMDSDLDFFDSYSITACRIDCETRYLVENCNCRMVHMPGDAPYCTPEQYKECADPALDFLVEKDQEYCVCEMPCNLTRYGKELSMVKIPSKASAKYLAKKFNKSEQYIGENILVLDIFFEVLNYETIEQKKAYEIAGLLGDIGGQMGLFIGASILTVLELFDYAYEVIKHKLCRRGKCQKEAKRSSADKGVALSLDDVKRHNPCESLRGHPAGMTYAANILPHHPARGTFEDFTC
Procedure: Another example of an in vitro assessment method consists of using mammalian heterologous expression systems, which are known to the skilled in the art, and include a variety of mammalian cell lines such as COS, HEK, e.g., HEK293 and/or CHO, cells. Cell lines are transfected with gated ion channel(s) and used to perform electrophysiology as follows:
All experiments are performed at room temperature (20-25° C.) in voltage clamp using conventional whole cell patch clamp methods (Neher, E., et al. (1978) Pfluegers Arch 375:219-228).
The amplifier used is the EPC-9 (HEKA-electronics, Lambrect, Germany) run by a Macintosh G3 computer via an ITC-16 interface. Experimental conditions are set with the Pulse-software accompanying the amplifier. Data is low pass filtered and sampled directly to hard-disk at a rate of 3 times the cut-off frequency.
Pipettes are pulled from borosilicate glass using a horizontal electrode puller (Zeitz-lnstrumente, Augsburg, Germany). The pipette resistances are 2-3 MOhms in the salt solutions used in these experiments. The pipette electrode is a chloridized silver wire, and the reference is a silver chloride pellet electrode (In Vivo Metric, Healdsburg, USA) fixed to the experimental chamber. The electrodes are zeroed with the open pipette in the bath just prior to sealing.
Coverslips with the cells are transferred to a 15 μl experimental chamber mounted on the stage of an inverted microscope (IMT-2, Olympus) supplied with Nomarski optics. Cells are continuously superfused with extracellular saline at a rate of 2.5 ml/min. After giga-seal formation, the whole cell configuration is attained by suction. The cells are held at a holding voltage of −60 mV and at the start of each experiment the current is continuously measured for 45 s to ensure a stable baseline. […] Current amplitudes are measured at the peak of the responses, and effect of the compounds is calculated as the amplitude at compound equilibrium divided by the amplitude of the current evoked by the pulse just before the compound was included. […]

[3] = human microsomes 60 min (samples 14-16)

Total % metabolites ([1]; % peak area relative to parent at T0, 60 min incubation, human microsomes): 8.08% | Compound A metabolite identification: m/z 342 [1, 3]: Yes | Compound A metabolite identification: m/z 356 (parent) [1, 3]: Yes | Compound A metabolite identification: m/z 372 [1, 3]: Yes | Compound A metabolite identification: m/z 412 [1, 3]: no | Calc. Conc. ([1]; human microsomes, time 0 min): 4.91 µM and 6.54 µM | Calc. Conc. ([1]; human microsomes, time 60 min): 3.84 µM and 3.83 µM and 3.77 µM | potency relative to amiloride on human ASIC1a pH-evoked response [2]: about 100 fold
Structure (SMILES): COc1ccc(F)cc1-c1cc2c(c3c1CCN(C)C3)NC(=O)C2=NO [Compound A, 5-(5-fluoro-2-methoxyphenyl)-6,7,8,9-tetrahydro-3-(hydroxyimino)-8-methyl-1H-pyrrolo[3,2-h]isoquinoline-2(3H)-one]
human ASIC1a pH-evoked response [2]: reduce the human ASIC1a pH-evoked response in CHO cells in a dose-dependent manner
